Experimental data: patent US20250281516A1, “NUTRACEUTICAL FORMULATION FOR POLYCYSTIC OVARY SYNDROME” (priority 2019, published 2025)

Tests used:
PCOS symptoms = assay: Physician's further feedback in general on PCOS symptom control; set-up: species or system women; conditions: in vivo
patients (ovulation) = conditions: inositol alone administered; cited from earlier work
infertile PCOS women = conditions: inositol and folic acid administered; cited from earlier work

Compound	effectiveness compared with the combination formulation (PCOS symptoms)	patients showing improvement in ovulation (patients (ovulation))	restoration of ovulation (infertile PCOS women)	duration of treatment after which most PCOS symptoms were controlled (PCOS symptoms)
O[C@H]1[C@H](O)[C@@H](O)[C@H](O)[C@@H](O)[C@H]1O [inositol]	not as effective	about 62%	about 70%	
O[C@H]1[C@H](O)[C@@H](O)[C@H](O)[C@@H](O)[C@H]1O [myo-inositol]				> 6 month
